# Experimental data as given in ChEMBL document CHEMBL1147697, “Synthesis and structure-activity relationship of a novel, achiral series of TNF-alpha converting enzyme inhibitors” (Bioorg Med Chem Lett, 2006).
# Experiments:
# [1] = Partition coefficient, logP of the compound; format: physicochemical; details: octanol/water
# [2] = Dissociation constant, pKa of the compound; format: physicochemical
# [3] = AUC in Sprague-Dawley rat at 30 mg/kg, po; format: ADME, organism-based; set-up: dose 30 mg/kg, route oral; details: plasma
# [4] = Half life in Sprague-Dawley rat at 2 mg/kg, iv; format: ADME, organism-based; set-up: dose 2 mg/kg, route intravenous; details: in vivo
# [5] = Clearance in Sprague-Dawley rat at 2 mg/kg, iv; format: ADME, organism-based; set-up: dose 2 mg/kg, route intravenous; details: in vivo
# [6] = Volume of distribution in Beagle dog at 2 mg/kg, iv; format: ADME, organism-based, Canis lupus familiaris; set-up: dose 2 mg/kg, route intravenous; details: in vivo, read-out: Vdss
# [7] = Cmax in Beagle dog at 10 mg/kg, po; format: ADME, organism-based, Canis lupus familiaris; set-up: dose 10 mg/kg, route oral; details: in vivo
# [8] = AUC in Sprague-Dawley rat at 2 mg/kg, iv; format: ADME, organism-based; set-up: dose 2 mg/kg, route intravenous; details: plasma
# [9] = Oral bioavailability in Beagle dog at 10 mg/kg, po; format: ADME, organism-based, Canis lupus familiaris; details: in vivo
# [10] = Cmax in Sprague-Dawley rat at 30 mg/kg, po; format: ADME, organism-based; set-up: dose 30 mg/kg, route oral; details: in vivo
# [11] = Stability in chimp liver S9 fraction after 30 mins; format: ADME, Pan troglodytes; details: chimpanzee, read-out: Stability
# [12] = Half life in Sprague-Dawley rat at 30 mg/kg, po; format: ADME, organism-based; set-up: dose 30 mg/kg, route oral; details: in vivo
# [13] = Oral bioavailability in Sprague-Dawley rat at 30 mg/kg, po; format: ADME, organism-based; details: in vivo
# [14] = Tmax in Sprague-Dawley rat at 30 mg/kg, po; format: ADME, organism-based; set-up: dose 30 mg/kg, route oral; details: in vivo
# [15] = Tmax in Beagle dog at 10 mg/kg, po; format: ADME, organism-based, Canis lupus familiaris; set-up: dose 10 mg/kg, route oral; details: in vivo
# [16] = Half life in Beagle dog at 10 mg/kg, po; format: ADME, organism-based, Canis lupus familiaris; set-up: dose 10 mg/kg, route oral; details: in vivo
# [17] = Clearance in Beagle dog at 2 mg/kg, iv; format: ADME, organism-based, Canis lupus familiaris; set-up: dose 2 mg/kg, route intravenous; details: in vivo
# [18] = AUC in Beagle dog at 10 mg/kg, po; format: ADME, organism-based, Canis lupus familiaris; set-up: dose 10 mg/kg, route oral; details: plasma
# [19] = Volume of distribution in Sprague-Dawley rat at 2 mg/kg, iv; format: ADME, organism-based; set-up: dose 2 mg/kg, route intravenous; details: in vivo, read-out: Vdss
# [20] = Half life in Beagle dog at 2 mg/kg, iv; format: ADME, organism-based, Canis lupus familiaris; set-up: dose 2 mg/kg, route intravenous; details: in vivo
# [21] = Stability in human liver S9 fraction after 30 mins; format: ADME, organism-based; details: read-out: Stability
# [22] = AUC in Beagle dog at 2 mg/kg, iv; format: ADME, organism-based, Canis lupus familiaris; set-up: dose 2 mg/kg, route intravenous; details: plasma
# [23] = Half life in Beagle dog at 1 mg/kg, po; format: ADME, organism-based, Canis lupus familiaris; set-up: dose 1 mg/kg, route oral; details: in vivo
# [24] = Cmax in Beagle dog at 1 mg/kg, po; format: ADME, organism-based, Canis lupus familiaris; set-up: dose 1 mg/kg, route oral; details: in vivo
# [25] = Clearance in Sprague-Dawley rat at 3.3 mg/kg, iv; format: ADME, organism-based; set-up: dose 3.3 mg/kg, route intravenous; details: in vivo
# [26] = Tmax in Beagle dog at 1 mg/kg, po; format: ADME, organism-based, Canis lupus familiaris; set-up: dose 1 mg/kg, route oral; details: in vivo
# Rattus norvegicus [27] = assay: AUC in Sprague-Dawley rat at 3.3 mg/kg, iv; format: ADME, organism-based, Plasma; set-up: dose 3.3 mg/kg, route intravenous; details: in vivo
# [28] = AUC in Beagle dog at 0.5 mg/kg, iv; format: ADME, organism-based, Canis lupus familiaris; set-up: dose 0.5 mg/kg, route intravenous; details: plasma
# [29] = Stability in rat liver S9 fraction after 30 mins; format: ADME, organism-based; details: read-out: Stability
# Rattus norvegicus [30] = assay: Oral bioavailability in Sprague-Dawley rat at 6.7 mg/kg, po; format: ADME, organism-based; details: in vivo
# [31] = Stability in dog liver S9 fraction after 30 mins; format: ADME, organism-based, Canis lupus familiaris; details: read-out: Stability
# [32] = Half life in Sprague-Dawley rat at 3.3 mg/kg, iv; format: ADME, organism-based; set-up: dose 3.3 mg/kg, route intravenous; details: in vivo
# [33] = Half life in Sprague-Dawley rat at 6.7 mg/kg, po; format: ADME, organism-based; set-up: dose 6.7 mg/kg, route oral; details: in vivo
# [34] = AUC in Beagle dog at 1 mg/kg, po; format: ADME, organism-based, Canis lupus familiaris; set-up: dose 1 mg/kg, route oral; details: plasma
# [35] = Oral bioavailability in Beagle dog at 1 mg/kg, po; format: ADME, organism-based, Canis lupus familiaris; details: in vivo
# Rattus norvegicus [36] = assay: AUC in Sprague-Dawley rat at 6.7 mg/kg, po; format: ADME, organism-based, Plasma; set-up: dose 6.7 mg/kg, route oral; details: in vivo
# [37] = Half life in Beagle dog at 0.5 mg/kg, iv; format: ADME, organism-based, Canis lupus familiaris; set-up: dose 0.5 mg/kg, route intravenous; details: in vivo
# [38] = Volume of distribution in Sprague-Dawley rat at 3.3 mg/kg, iv; format: ADME, organism-based; set-up: dose 3.3 mg/kg, route intravenous; details: in vivo, read-out: Vdss
# [39] = Cmax in Sprague-Dawley rat at 6.7 mg/kg, po; format: ADME, organism-based; set-up: dose 6.7 mg/kg, route oral; details: in vivo
# [40] = Clearance in Beagle dog at 0.5 mg/kg, iv; format: ADME, organism-based, Canis lupus familiaris; set-up: dose 0.5 mg/kg, route intravenous; details: in vivo
# [41] = Volume of distribution in Beagle dog at 0.5 mg/kg, iv; format: ADME, organism-based, Canis lupus familiaris; set-up: dose 0.5 mg/kg, route intravenous; details: in vivo, read-out: Vdss
# [42] = Tmax in Sprague-Dawley rat at 6.7 mg/kg, po; format: ADME, organism-based; set-up: dose 6.7 mg/kg, route oral; details: in vivo
smiles,measurement,setting,value
Cc1cc(COc2ccc(C(=O)NC3(CC(=O)NO)CCCCC3)cc2)c2ccccc2n1,logP,[1],1.62
same,pKa,[2],10.1
Cc1cc(COc2ccc(C(=O)NC3(CC(=O)NO)CCN(C(C)(C)C)CC3)cc2)c2ccccc2n1,logP,[1],1.95
same,pKa,[2],9
Cc1cc(COc2ccc(C(=O)NC3(CC(=O)NO)CCN(C4=NCCS4)CC3)cc2)c2ccccc2n1,logP,[1],2.78
same,pKa,[2],7.23
Cc1cc(COc2ccc(C(=O)NC3(CC(=O)NO)CCN(CCF)CC3)cc2)c2ccccc2n1,logP,[1],2.7
same,pKa,[2],7.2
Cc1cc(COc2ccc(C(=O)NC3(CC(=O)NO)CCN(CC(C)(C)C)CC3)cc2)c2ccccc2n1,logP,[1],3.66
same,pKa,[2],7.75
Cc1cc(COc2ccc(C(=O)NC3(CC(=O)NO)CCOCC3)cc2)c2ccccc2n1,AUC,[3],4.86 µM·h
same,half-life,[4],18 min
same,clearance,[5],26.7 mL/min/kg
same,Vd,[6],2.5 L/kg
same,Cmax,[7],4.49 µM
same,AUC,[8],2.21 µM·h
same,bioavailability,[9],79%
same,Cmax,[10],3.75 µM
same,remaining at 0.5 h,[11],36.7%
same,half-life,[12],108 min
same,bioavailability,[13],15%
same,Tmax,[14],24 min
same,Tmax,[15],45 min
same,half-life,[16],240 min
same,clearance,[17],38.3 mL/min/kg
same,AUC,[18],7.72 µM·h
same,Vd,[19],0.7 L/kg
same,half-life,[20],252 min
same,remaining at 0.5 h,[21],83.8%
same,AUC,[22],1.97 µM·h
C#CC(C)(C)N1CCC(CC(=O)NO)(NC(=O)c2ccc(OCc3cc(C)nc4ccccc34)cc2)CC1,logP,[1],3.43
same,pKa,[2],6.58
Cc1cc(COc2ccc(C(=O)NC3(CC(=O)NO)CCNCC3)cc2)c2ccccc2n1,half-life,[23],126 min
same,Cmax,[24],126 nM
same,clearance,[25],10 mL/min/kg
same,Tmax,[26],37.8 min
same,logP,[1],2.13
same,AUC,Rattus norvegicus [27],11.359 µM·h
same,AUC,[28],2.19 µM·h
same,remaining at 0.5 h,[29],100%
same,F,Rattus norvegicus [30],17%
same,remaining at 0.5 h,[31],100%
same,half-life,[32],126 min
same,half-life,[33],132 min
same,AUC,[34],0.343 µM·h
same,remaining at 0.5 h,[11],100%
same,bioavailability,[35],8%
same,AUC,Rattus norvegicus [36],8.358 µM·h
same,pKa,[2],8.4
same,half-life,[37],90 min
same,Vd,[38],0.3 L/kg
same,remaining at 0.5 h,[21],92%
same,Cmax,[39],2480 nM
same,clearance,[40],5 mL/min/kg
same,Vd,[41],0.3 L/kg
same,Tmax,[42],18 min
CCS(=O)(=O)CCN1CCC(CC(=O)NO)(NC(=O)c2ccc(OCc3cc(C)nc4ccccc34)cc2)CC1,logP,[1],2.48
same,pKa,[2],6.06
